Experimental findings from patent publication US11292812B2, “3′3′-cyclic dinucleotides” (Institute of Organic Chemistry and Biochemistry, ASCR, V.V.I, priority 2018, dated 2022) are described below.

For assay [1], the target named is T1, WT STING (Homo sapiens, UniProt Q86WV6, H232R). As to the kind of experiment: Digitonin assay using 293T wtSTING-FL reporter cells. Format: cell-based. The following applies: 293T wtSTING-FL cells, ISRE firefly luciferase reporter, digitonin buffer 30 minutes, then 5 hours. The source says: Two complementary oligonucleotides of the sequence […] […] […] […] […] […] […] The oligonucleotides were mixed in equal molar amounts, hybridized, and cleaved by restriction endonucleases HindIII (cat. #. R0104S, NEB, Ipswich, USA) and BglII (cat. #R0144S, NEB, Ipswich, USA). Ultimately, they were ligated into plasmid pGL4.27 (cat. #E6651, Promega, Madison, USA) linearized with the same enzymes. As result the sequence with four ISRE sites was placed upstream of the minimum promoter of firefly luciferase reporter gene.
After 5 minutes incubation at room temperature (RT), 250 μL of the mixture was added dropwise to the cells in one well. Cells were incubated 36 hours at 37° C. with 5% CO2, and then detached with 0.05% Trypsin and 0.22 g/L EDTA (both cat. #L0941, Biowest, Riverside, USA).
Transfected cells were seeded onto poly-D-lysine coated six well plates at density 50,000 cells per 1 cm^2 in DMEM medium with high glucose containing 10% heat inactivated FBS, 30 μg/mL blasticidin (cat. #ant-bl-05, InvivoGen, San Diego, USA), 0.06 mg/ml Penicillin G and 0.1 mg/ml Streptomycin Sulfate (both cat. #. L0018, Biowest, Riverside, USA). The medium was replenished every 3-4 days until visible colonies of cells resistant to blasticidin were formed.
Blasticidin resistant cells stably expressing WT STING were further transfected with pGL64.27-4×ISRE plasmid following the same procedure as described above. […] Homogeneous culture of stably double transfected cells was prepared by limiting dilution of cells in 96 well plates and wells with cells were selected that originated from a single cell.
The medium was removed next day and three fold serial dilutions of compounds in Digitonin buffer containing 50 mmol·l^−1 HEPES (cat. #H3375, Sigma Aldrich, Czech Republic) pH 7.0, 100 mmol·l^−1 KCl, 3 mmol·l^−1 MgCl2, 0.1 mmol·l^−1 DTT (cat. #D0632, Sigma Aldrich, Czech Republic), 85 mmol·l^−1 Sucrose (cat. #S7903, Sigma Aldrich, Česká Republika), 0.2% BSA (cat. #A2153, Sigma Aldrich, Czech Republic), 1 mmol·l^−1 ATP (cat. #A1852, Sigma Aldrich, Czech Republic), 0.1 mmol·l^−1 GTP (cat. #G8877, Sigma Aldrich, Czech Republic), and 10 μg/mL Digitonin A (cat. #D141, Sigma Aldrich, Czech Republic) were added to the cells. The buffer was removed after 30 minutes incubation at 37° C. with 5% CO2, the cells were washed once with 100 μl of cultivation medium, and 100 μl of medium was added to each well. The plates with cells were incubated for 5 hours at 37° C. with 5% CO2, 50 μl of the medium was removed and 30 μl of ONE-Glo™ Luciferase Assay System reagent (cat. #E6120, Promega, Madison, USA) was added to each well. Luminesce was read on Synergy H1 (Biotek, Winooski, USA).
Target sequence in this assay (Q86WV6 whole entry H232R): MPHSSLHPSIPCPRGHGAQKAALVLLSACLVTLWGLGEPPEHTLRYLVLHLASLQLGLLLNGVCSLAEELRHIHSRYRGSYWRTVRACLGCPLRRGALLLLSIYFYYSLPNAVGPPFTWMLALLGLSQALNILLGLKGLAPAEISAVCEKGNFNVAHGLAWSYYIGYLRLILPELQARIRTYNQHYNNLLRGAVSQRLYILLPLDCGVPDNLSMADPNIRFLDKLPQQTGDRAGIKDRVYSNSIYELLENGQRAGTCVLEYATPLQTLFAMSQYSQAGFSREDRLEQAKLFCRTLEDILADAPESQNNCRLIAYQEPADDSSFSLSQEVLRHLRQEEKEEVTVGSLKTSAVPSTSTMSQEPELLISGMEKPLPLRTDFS

The target in the next assay is T2, AQ STING (G230A-R293Q) (Homo sapiens, UniProt Q86WV6, G230A/H232R/R293Q).
T2 construct: truncated human WT STING or AQ STING (amino acid residues 140-343); 8xHis (N, cleaved yes); SUMO (N, cleaved yes); made in house; host or cells: E. coli Rosetta-gami B (DE3)
As to the kind of experiment: Differential Scanning Fluorimetry with AQ STING. Format: binding. The following applies: thermal shift, truncated human AQ STING 0.1 mg/ml, 150 μM CDN; for ΔTm at 150 µM: read-out: DSF ΔTm AQ STING. On the procedure:
(§1) Purified PCR products were cleaved with restriction enzymes BamHI (cat. #R0136S, NEB, Ipswich, USA) and NotI (cat. #R0189S, NEB, Ipswich, USA) and cloned into the pSUMO vector linearized with the identical enzymes.
(§2) DNase I (cat. #D5025, Sigma Aldrich, Czech Republic) and RNase A (cat. #R6513, Sigma Aldrich, Czech Republic) were added (final concentration 50 μg/ml) together with MgCl2 (final concentration 5 mmol·l^−1) to the homogenate and bacteria were lysed using French Press G-M™ High-Pressure Cell Press Homogenizer (1500 psi, 3 cycles). […] The resin was poured into a chromatography column, washed with 50 ml buffer A (50 mmol·l^−1 TrisCl (pH 8.0), 800 mmol·l^−1 NaCl, 3 mmol·l^−1 β-mercaptoethanol; 10% glycerol; 20 mmol·l^−1 imidazole) and 8-His-SUMO tagged STING proteins were eluted with 15 ml buffer A containing 300 mmol·l^−1 imidazole. […] Proteins were concentrated with Amicon® Ultra-15 10 K device (cat. #UFC901008, Merck Millipore, Billerica, USA) and flash frozen in liquid N2.
(§3) 20 μL solutions of the reaction mixtures were pipetted in triplicates into 96 well optical reaction plates and thermal denaturation of samples were performed on real time PCR cycler (LightCycler® 480 Instrument II—Roche, Basel, Switzerland). The first derivative of the thermal denaturation curves was performed to calculate denaturing temperatures of STING-CDN complexes and STING apoproteins. The thermal shift for each CDN was calculated by subtracting the average denaturing temperature of STING apoprotein from the average denaturing temperature of STING CDN complex.

Assay [2] concerns the target T1, WT STING. As to the kind of experiment: Differential Scanning Fluorimetry with WT STING. Format: binding. Further details: truncated human WT STING or AQ STING (amino acid residues 140-343); 8xHis (N, cleaved yes); SUMO (N, cleaved yes); made in house; host or cells: E. coli Rosetta-gami B (DE3). To be noted: thermal shift, truncated human WT STING 0.1 mg/ml, 150 μM CDN; for ΔTm at 150 µM: read-out: DSF ΔTm WT STING. The protocol:
as §1, §2, §3
Target sequence in this assay (Q86WV6 140-343 H232R): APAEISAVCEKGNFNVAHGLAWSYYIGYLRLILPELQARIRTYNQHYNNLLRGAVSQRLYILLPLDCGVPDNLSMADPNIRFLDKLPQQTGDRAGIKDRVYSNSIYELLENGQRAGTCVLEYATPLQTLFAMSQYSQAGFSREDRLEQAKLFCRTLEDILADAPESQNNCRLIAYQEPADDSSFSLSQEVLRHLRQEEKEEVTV

pEC50: −log10 of the molar value. Some results are limits rather than exact numbers.

T2 sequence (Q86WV6 140-343 G230A/H232R/R293Q): as the sequence (Q86WV6 140-343 H232R) above, with G91A, R154Q counted along it

Regarding `Nc1nc2c(ncn2[C@@H]2O[C@@H]3COP(=O)(O)COC4C(O)[C@H](n5cnc6c(=O)[nH]c(N)nc65)O[C@@H]4COP(=O)(O)COC3C2O)c(=O)[nH]1` (stereo partly drawn) [Example 6, 9,9′-((2R,3R,3aS,8aR,10R,11R,11aS,16aR)-3,6,11,14-tetrahydroxy-6,14-dioxidododecahydrodifuro[3,2-e:3′,2′-l][1,4,8,11]tetraoxa[2,9]diphosphacyclotetradecine-2,10-diyl)bis(2-amino-1,9-dihydro-6H-purin-6-one)], on WT STING [1], the negative logarithm of the EC50 (pEC50) was less than 4.30. Moreover, the ΔTm at 150 µM on AQ STING (G230A-R293Q) turned out to be 0 °C; on WT STING [2] it was 0.1 °C.

For `Nc1ncnc2c1ncn2[C@@H]1O[C@@H]2COP(=O)(O)COC3C(O)[C@H](n4cnc5c(N)ncnc54)O[C@@H]3COP(=O)(O)COC2C1O` (stereo partly drawn) [Example 9, (2R,3S,3aS,8aR,10R,11S,11aS,16aR)-2,10-bis(6-amino-9H-purin-9-yl)-3,6,11,14-tetrahydroxvdodecahydrodifuro[3,2-e:3′,2′-l][1,4,8,11]tetraoxa[2,9]diphosphacyclotetradecine 6,14-dioxide], the pEC50 on WT STING [1] was less than 4.00. Moreover, the “DSF ΔTm AQ STING” value on AQ STING (G230A-R293Q) is 0.1 °C. Besides, the “DSF ΔTm WT STING” value at WT STING [2] was 0.1 °C.

Regarding `Nc1nc2c(ncn2[C@@H]2O[C@@H]3COP(=O)(O)O[C@H]4[C@@H](O)[C@H](n5cnc6c(=O)[nH]c(N)nc65)O[C@@H]4COP(=O)(O)O[C@H]3[C@H]2O)c(=O)[nH]1` [3′3′-c-di-GMP, reference compound], the pEC50 on WT STING [1] was 5.24. In addition, the “DSF ΔTm AQ STING” value at AQ STING (G230A-R293Q) stood at 7.7 °C. The “DSF ΔTm WT STING” value on WT STING [2] was determined as 2.6 °C.

Consider “2-amino-9-((2R,3R,3aS,7aR,9R,10R,10aS,15aR)-2-(6-amino-9H-purin-9-yl)-3,5,10,13-tetrahydroxy-5,13-dioxidodecahydro-2H-difuro[3,2-d:3′,2′-k][1,3,7,10]tetraoxa[2,8]diphosphacyclotridecin-9-yl)-1,9-dihydro-6H-purin-6-one [Example 2]”, for which the pEC50 at WT STING [1] was 4.98. Further, on AQ STING (G230A-R293Q), the “DSF ΔTm AQ STING” value was found to be 3.3 °C. Moreover, the “DSF ΔTm WT STING” value on WT STING [2] stood at 0.1 °C.

`Nc1nc2c(ncn2[C@@H]2O[C@@H]3COP(=O)(O)O[C@@H]4[C@H](O)[C@@H](COP(=O)(O)O[C@@H]2[C@@H]3O)O[C@H]4n2cnc3c(N)ncnc32)c(=O)[nH]1` [2′2′-cGAMP, reference compound]: the negative-log EC50 (pEC50) on WT STING [1] was 7.52. In addition, the “DSF ΔTm AQ STING” value on AQ STING (G230A-R293Q) came out at 19.4 °C. The “DSF ΔTm WT STING” value on WT STING [2] was 11.5 °C.

As to `Nc1nc2c(ncn2[C@@H]2O[C@@H]3COP(=O)(O)COC4C(O)[C@H](n5cnc6c(N)ncnc65)O[C@@H]4COP(=O)(O)OC3C2F)c(=O)[nH]1` (stereo partly drawn) [Example 5, 2-amino-9-((2R,3R,3aR,7aR,9R,10R,10aS,15aR)-9-(6-amino-9H-purin-9-yl)-3-fluoro-5,10,13-trihydroxy-5,13-dioxidodecahydro-2H-difuro[3,2-d:3′,2′-k][1,3,7,10]tetraoxa[2,8]diphosphacyclotridecin-2-yl)-1,9-dihydro-6H-purin-6-one], the pEC50 on WT STING [1] is 7.00. Besides, the ΔTm at 150 µM is 12 °C on AQ STING (G230A-R293Q) and 4.1 °C at WT STING [2].

As for `Nc1nc2c(ncn2[C@@H]2O[C@@H]3COP(=O)(O)OC4C(F)[C@H](n5cnc6c(N)ncnc65)O[C@@H]4COP(=O)(O)COC3C2O)c(=O)[nH]1` (stereo partly drawn) [Example 4, 2-amino-9-((2R,3R,3aR,7aR,9R,10R,10aS,15aR)-2-(6-amino-9H-purin-9-yl)-3-fluoro-5,10,13-trihydroxy-5,13-dioxidodecahydro-2H-difuro[3,2-d:3′,2′-k][1,3,7,10]tetraoxa[2,8]diphosphacyclotridecin-9-yl)-1,9-dihydro-6H-purin-6-one], the pEC50 on WT STING [1] was 7.30. Also, the thermal shift (ΔTm) at 150 µM at AQ STING (G230A-R293Q) was 13.6 °C; at WT STING [2], 4.8 °C.

Regarding `Nc1ncnc2c1ncn2[C@@H]1O[C@@H]2COP(=O)(O)O[C@H]3[C@@H](O)[C@H](n4cnc5c(N)ncnc54)O[C@@H]3COP(=O)(O)O[C@H]2[C@H]1O` [3′3′-c-di-AMP, reference compound], the pEC50 on WT STING [1] was 6.52. Besides, at AQ STING (G230A-R293Q), the “DSF ΔTm AQ STING” value turned out to be 9.3 °C. Also, the “DSF ΔTm WT STING” value on WT STING [2] is 2.6 °C.
